In paper PMC10501649, “A detoxification pathway initiated by a nuclear receptor TcHR96h in Tetranychus cinnabarinus (Boisduval)” (PLOS Genetics, 2023) one finds Kd data, which are given here for two compounds.

Read-outs that look alike come from different tables or passages of the source.

For assay [1], the target named is TcHR96h (nuclear hormone receptor HR96h). The assay is described as follows: microscale thermophoresis (MST), supported by DARTs; R448A mutation reduces affinity […]. The class given is binding, Tetranychus cinnabarinus. (Microscale thermophoresis detects binding through changes in fluorescence in a small temperature gradient.)
The target is the same in assay [2]. Described as above. The class given is binding, Tetranychus cinnabarinus. The source holds these as a separate data set.

By Kd is commonly meant the free concentration of one partner at which half of the binding sites on the other are occupied at equilibrium, for simple one-to-one binding. On to `CC(C)(C)c1ccc(C(C#N)C(=O)c2ccccc2C(F)(F)F)cc1` (centres unmarked) [AB-1], for which the equilibrium dissociation constant (Kd) in assay [1] worked out at 138 µM. Take `COCCOC(=O)C(C#N)(C(=O)c1ccccc1C(F)(F)F)c1ccc(C(C)(C)C)cc1` (centres unmarked) [cyflumetofen]: the Kd in assay [2] turned out to be 189 µM.
